{"source": "patent US20090022772A1", "about": "“BIOABSORBABLE ELASTOMERIC ARTERIAL SUPPORT DEVICE AND METHODS OF USE” (MediVas, LLC, priority 2007, published 2009)", "experiment": "Properties and self-adherence of PEA 4-Phe-4/EAC-2 mixture films, dry and after soaking in water", "format": "physicochemical", "parameters": "key to Self-adherence: (—) means: no self-adherence observed", "conditions": "for Self-adherence: folded film in water 24 hours", "from_the_text": "At the first stage, this Example addresses the question of whether invention cross-linking agents can be used as plasticizers without causing the composition to undesirably adhere to the surface of other materials (for example, steel, and other medical device surfaces).", "data": [{"compound": "C=C(C)C(=O)NC(Cc1ccccc1)C(=O)OCCCCCCOC(=O)C(Cc1ccccc1)NC(=O)C(=C)C", "note": "[Phe-6-MA, dimethacrylate of bis(L-Phe)-1,6-hexanediol diester]", "values": [{"measurement": "Self-adherence", "setting": "PEA 4-Phe-4/EAC-2 40/60 w/w", "value": "—"}, {"measurement": "Film properties, Dry", "setting": "PEA 4-Phe-4/EAC-2 60/40 w/w", "value": "Hard"}, {"measurement": "Self-adherence", "setting": "PEA 4-Phe-4/EAC-2 60/40 w/w", "value": "—"}, {"measurement": "Film properties, Wet", "setting": "PEA 4-Phe-4/EAC-2 60/40 w/w, pre-soaked in water at room temperature for 24 hours", "value": "Elastic"}, {"measurement": "Film properties, Dry", "setting": "PEA 4-Phe-4/EAC-2 80/20 w/w", "value": "Hard"}, {"measurement": "Self-adherence", "setting": "PEA 4-Phe-4/EAC-2 80/20 w/w", "value": "—"}]}]}
